The values that follow come from US8377963B2, “Insulin-regulated aminopeptidase (IRAP) inhibitors and uses thereof” (Howard Florey Institute, priority 2007, dated 2013).

The target in one assay is T1, Recombinant human LTA4H (Homo sapiens, UniProt P09960).
T1 construct: purchased Cayman Chemicals
T1 sequence (P09960 1-611): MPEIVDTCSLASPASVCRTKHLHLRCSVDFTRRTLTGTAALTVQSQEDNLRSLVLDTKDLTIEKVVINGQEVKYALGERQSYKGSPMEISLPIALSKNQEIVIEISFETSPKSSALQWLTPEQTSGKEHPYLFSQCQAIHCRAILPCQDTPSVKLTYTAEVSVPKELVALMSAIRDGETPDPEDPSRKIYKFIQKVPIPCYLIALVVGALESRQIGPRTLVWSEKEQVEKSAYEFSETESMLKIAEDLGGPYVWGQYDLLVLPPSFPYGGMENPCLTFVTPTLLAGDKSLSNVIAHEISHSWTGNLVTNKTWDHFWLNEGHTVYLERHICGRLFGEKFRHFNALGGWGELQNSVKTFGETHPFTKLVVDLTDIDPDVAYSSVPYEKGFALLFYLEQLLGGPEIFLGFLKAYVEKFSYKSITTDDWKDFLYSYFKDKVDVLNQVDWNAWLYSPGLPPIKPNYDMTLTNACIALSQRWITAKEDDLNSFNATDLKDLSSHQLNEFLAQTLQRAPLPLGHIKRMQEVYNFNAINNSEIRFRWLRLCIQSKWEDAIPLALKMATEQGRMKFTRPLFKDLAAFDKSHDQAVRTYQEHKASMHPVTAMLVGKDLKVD
The assay is described as follows: Leukotriene A4 hydrolase assay. The following applies: read-out: % inhibition of the catalytic activity of the enzyme. Format: biochemical. As for the experimental part: Leukotriene A4 hydrolase assay. Recombinant human LTA4H (Cayman Chemicals Michigan USA) (1-20 μg) was incubated at room temperature with alanine-p-nitroanilide as substrate in 50 mM Tris-HCl buffer, pH 8.0, containing 100 mM KCl with or without increasing concentrations of an inhibitor. The absorbance at 405 nm was measured at 10 min intervals.
(§1) Limited inhibition of control enzymes was observed.

Another assay concerns the target T2, Aminopeptidase N (Sus scrofa, UniProt P15145).
T2 construct: purchased Sigma Aldrich
T2 sequence (P15145 1-963): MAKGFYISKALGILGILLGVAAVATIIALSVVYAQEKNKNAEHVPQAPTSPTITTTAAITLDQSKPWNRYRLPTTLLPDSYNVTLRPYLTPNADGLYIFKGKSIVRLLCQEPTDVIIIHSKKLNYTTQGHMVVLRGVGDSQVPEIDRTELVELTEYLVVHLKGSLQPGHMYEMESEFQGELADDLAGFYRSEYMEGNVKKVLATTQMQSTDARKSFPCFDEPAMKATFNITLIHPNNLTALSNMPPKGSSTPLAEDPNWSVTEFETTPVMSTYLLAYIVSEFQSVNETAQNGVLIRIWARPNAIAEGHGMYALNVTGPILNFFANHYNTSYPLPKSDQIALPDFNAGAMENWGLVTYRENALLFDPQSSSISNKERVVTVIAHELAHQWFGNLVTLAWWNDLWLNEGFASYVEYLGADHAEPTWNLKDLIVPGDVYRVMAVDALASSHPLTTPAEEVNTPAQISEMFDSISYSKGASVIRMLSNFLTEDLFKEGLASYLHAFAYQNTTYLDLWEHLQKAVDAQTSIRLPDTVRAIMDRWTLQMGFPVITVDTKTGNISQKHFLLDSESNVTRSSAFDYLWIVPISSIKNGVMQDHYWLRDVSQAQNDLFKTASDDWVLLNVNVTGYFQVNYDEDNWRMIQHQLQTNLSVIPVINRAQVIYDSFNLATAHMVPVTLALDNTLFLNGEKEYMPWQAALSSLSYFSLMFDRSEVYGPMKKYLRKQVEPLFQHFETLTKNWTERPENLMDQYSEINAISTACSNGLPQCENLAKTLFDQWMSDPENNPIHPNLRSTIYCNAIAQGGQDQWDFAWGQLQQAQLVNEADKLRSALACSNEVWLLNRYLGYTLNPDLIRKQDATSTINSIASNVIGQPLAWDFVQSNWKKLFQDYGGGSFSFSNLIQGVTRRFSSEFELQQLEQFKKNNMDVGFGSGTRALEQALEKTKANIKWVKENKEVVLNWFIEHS
Nature of the assay: Aminopeptidase N assay. Type of assay: biochemical. The following applies: read-out: % inhibition of the catalytic activity of the enzyme. How it is done: Aminopeptidase N assay. 5 mU of aminopeptidase M (Sigma Aldrich) was incubated with 100 μM of substrate alanine-β-naphthylamide (Sigma Aldrich) in Tris buffered saline (50 mM Tris-HCl, 150 mM NaCl pH 7.5) at 25° C. IRAP inhibitors (1-10 μM) were added after 1 minute and fluorescence at 405 nm was followed.
as §1

Assay [1] has as its target Angiotensin converting enzyme 1 (Homo sapiens, UniProt P12821). The assay is described as follows: Angiotensin converting enzyme assay. Type of assay: biochemical. The settings on record: read-out: % inhibition of the catalytic activity of the enzyme. As for the experimental part:
Angiotensin converting enzyme assay. The enzyme (final concentration 0.02 pmol/100 L) was incubated with 200 μL of assay solution that included 5 mmol/L HHL in 100 mmol/L potassium buffer (pH 8.3) that contained 300 mmol/L NaCl and 10^−4 mol/L ZnSO4 for 3 hours at 37° C. The enzymatic reaction was stopped by the addition of 1.5 mL of 0.28N NaOH, 100 μL of o-phthaldialdehyde (20 mg/mL) in methanol was added and the fluorescent reaction stopped by the addition of 200 μL of 3N HCl. The product, L-His-Leu, was measured fluorometrically (360 nm excitation and 500 nm emission).
as §1

In assay [2] the test system is Glucose-6-phosphate dehydrogenase/glucose hexokinase. Nature of the assay: Glucose-6-phosphate dehydrogenase and hexokinase activity, fluorimetric assay. The settings on record: 100 μM.
Description: Glucose-6-phosphate dehydrogenase and hexokinase activity. Glucose-6-phosphate dehydrogenase and hexokinase activity in the absence and presence of the compounds was determined in a fluorimetric assay. Ten mM Tris MgCl2 buffer (total volume of 200 ml) containing glucose-6-phosphate dehydrogenase, 0.3M ATP, 30 mM NADP+ was added to 96 well microtitre plate together with 20 μl of compound, a reading at excitation 350 nm and emission 510 nm was taken followed by the addition of hexokinase and another reading.
Another assay concerns the target T3, IRAP (Homo sapiens, UniProt Q9UIQ6).
T3 construct: expressed in transfected cells; host or cells: HEK 293T
The assay is described as follows: IRAP enzymatic assay (hydrolysis of Leu-MCA). Type of assay: biochemical. The following applies: substrate Leu-MCA, solubilized membranes of HEK 293T cells transfected with IRAP. How it is done:
An in vitro enzymatic assay was used to initially assess IRAP inhibitory activity.
After solubilization, the membranes were pelleted by centrifugation at 23,100 g for 15 min at 4° C., and the supernatant was reserved as the source of IRAP activity. The enzymatic activities of IRAP were determined by the hydrolysis of the synthetic substrate Leu-MCA (Sigma-Aldrich, Missouri, USA) monitored by the release of a fluorogenic product, MCA, at excitation and emission wavelengths of 380 and 440 nm, respectively. Assays were performed in 96-well plates; each well contains between […] solubilized membrane protein, a range of concentration of substrate in a final volume of 100 μL 50 mM Tris-HCl buffer (pH 7.4). Non-specific hydrolysis of the substrate was corrected by subtracting the emission from incubations with membranes transfected with empty vector. Reactions proceeded at 37° C. for 30 min within a thermostatted FLEX station fluorescence microplate reader (Molecular Devices, Sunnyvale, Calif.). […] Km values of IRAP for Leu-MCA were determined from the kinetic studies. […] All data obtained were from at least three separate experiments performed in duplicate.

Sequence of Angiotensin converting enzyme 1 (P12821 30-1306): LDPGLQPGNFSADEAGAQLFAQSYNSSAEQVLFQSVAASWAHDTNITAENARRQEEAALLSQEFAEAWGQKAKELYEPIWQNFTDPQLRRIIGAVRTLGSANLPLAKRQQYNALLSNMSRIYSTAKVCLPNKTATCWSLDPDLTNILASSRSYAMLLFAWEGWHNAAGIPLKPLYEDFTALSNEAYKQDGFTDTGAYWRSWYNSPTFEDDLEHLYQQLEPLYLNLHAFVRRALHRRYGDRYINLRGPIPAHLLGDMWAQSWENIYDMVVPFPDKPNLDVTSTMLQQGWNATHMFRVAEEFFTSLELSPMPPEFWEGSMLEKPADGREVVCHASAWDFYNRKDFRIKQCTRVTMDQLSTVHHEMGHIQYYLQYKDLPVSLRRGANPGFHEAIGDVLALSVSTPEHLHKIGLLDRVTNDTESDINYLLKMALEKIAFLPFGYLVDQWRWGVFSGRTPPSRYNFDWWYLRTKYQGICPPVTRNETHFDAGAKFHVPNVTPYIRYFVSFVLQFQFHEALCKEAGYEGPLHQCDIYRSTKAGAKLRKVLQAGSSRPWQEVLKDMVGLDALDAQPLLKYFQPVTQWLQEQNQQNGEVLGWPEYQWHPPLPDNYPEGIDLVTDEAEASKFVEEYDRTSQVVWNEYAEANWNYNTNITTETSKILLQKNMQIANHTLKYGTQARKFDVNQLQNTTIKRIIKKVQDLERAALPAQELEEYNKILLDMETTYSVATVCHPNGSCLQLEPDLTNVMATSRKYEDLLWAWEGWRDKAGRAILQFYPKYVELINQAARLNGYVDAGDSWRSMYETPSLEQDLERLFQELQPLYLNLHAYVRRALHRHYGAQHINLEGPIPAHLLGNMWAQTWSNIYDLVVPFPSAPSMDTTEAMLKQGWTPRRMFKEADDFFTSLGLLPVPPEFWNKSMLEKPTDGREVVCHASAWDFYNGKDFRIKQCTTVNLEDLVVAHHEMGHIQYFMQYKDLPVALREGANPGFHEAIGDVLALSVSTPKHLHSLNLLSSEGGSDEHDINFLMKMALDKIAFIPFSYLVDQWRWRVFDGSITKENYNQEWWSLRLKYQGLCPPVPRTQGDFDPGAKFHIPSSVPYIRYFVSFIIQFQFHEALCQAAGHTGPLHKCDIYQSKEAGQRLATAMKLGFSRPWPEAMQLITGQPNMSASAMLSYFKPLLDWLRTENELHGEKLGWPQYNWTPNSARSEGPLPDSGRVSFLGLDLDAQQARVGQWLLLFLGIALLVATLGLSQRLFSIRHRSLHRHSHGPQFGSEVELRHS
T3 sequence (Q9UIQ6 whole entry): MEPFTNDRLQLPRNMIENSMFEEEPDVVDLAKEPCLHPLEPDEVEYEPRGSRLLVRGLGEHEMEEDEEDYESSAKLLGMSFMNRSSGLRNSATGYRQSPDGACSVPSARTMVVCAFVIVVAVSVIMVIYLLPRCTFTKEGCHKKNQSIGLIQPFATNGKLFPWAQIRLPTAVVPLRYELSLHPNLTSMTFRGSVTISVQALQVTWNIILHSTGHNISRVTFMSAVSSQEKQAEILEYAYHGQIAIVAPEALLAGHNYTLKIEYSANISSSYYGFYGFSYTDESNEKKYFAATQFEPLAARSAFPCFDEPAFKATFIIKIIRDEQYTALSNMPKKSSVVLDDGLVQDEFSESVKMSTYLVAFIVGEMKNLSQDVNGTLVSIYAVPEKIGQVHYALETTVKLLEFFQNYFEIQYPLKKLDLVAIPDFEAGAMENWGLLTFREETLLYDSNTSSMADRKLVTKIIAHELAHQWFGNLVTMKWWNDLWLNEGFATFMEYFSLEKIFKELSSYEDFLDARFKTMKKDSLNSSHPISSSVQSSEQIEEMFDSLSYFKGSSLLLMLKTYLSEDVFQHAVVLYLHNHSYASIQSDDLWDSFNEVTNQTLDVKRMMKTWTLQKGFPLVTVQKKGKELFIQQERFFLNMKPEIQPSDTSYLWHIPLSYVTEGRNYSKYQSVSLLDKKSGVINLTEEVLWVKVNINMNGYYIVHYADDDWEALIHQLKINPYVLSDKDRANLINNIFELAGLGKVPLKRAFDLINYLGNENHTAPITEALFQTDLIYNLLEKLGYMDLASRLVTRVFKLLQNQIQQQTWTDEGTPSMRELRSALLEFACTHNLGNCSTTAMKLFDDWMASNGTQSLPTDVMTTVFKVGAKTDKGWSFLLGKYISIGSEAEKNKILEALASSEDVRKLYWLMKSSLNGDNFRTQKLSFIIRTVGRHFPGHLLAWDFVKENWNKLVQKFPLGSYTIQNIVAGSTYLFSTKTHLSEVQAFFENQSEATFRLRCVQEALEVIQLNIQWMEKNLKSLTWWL

Take `CCOC(=O)C1=C(NC(C)=O)Oc2cc(O)ccc2C1c1cnc2ccccc2c1` (stereo not shown) [Compound 4, Ethyl 2-(acetylamino)-7-hydroxy-4-quinolin-3-yl-4H-chromene-3-carboxylate]: the inhibition at 10 µM at Recombinant human LTA4H (10 μM) was 0%; on Aminopeptidase N it was 3%; in assay [1], 0%. The inhibition at 100 µM at Recombinant human LTA4H is 25%; on Aminopeptidase N (100 μM) it was 14%; in assay [1], 0%.
As to `CCOC(=O)C1=C(N)Oc2cc(O)ccc2C1c1cnc2ccccc2c1` (stereo not shown) [Compound 3, Ethyl 2-amino-7-hydroxy-4-quinolin-3-yl-4H-chromene-3-carboxylate], the inhibition at 100 µM at Recombinant human LTA4H came to 4%; in assay [1], 3%. For the same compound, the values for the inhibition at 10 µM (at Aminopeptidase N; in assay [1]) were 12% and 0%, respectively. In assay [2], the “% inhibition of the catalytic activity of the enzyme” value amounted to 0%.
For `CCOC(=O)C1=C(N)Oc2cc(O)ccc2C1c1cccnc1` (stereo not shown) [reference compound], the IC50 on IRAP was determined as 3000 nM. The Ki at IRAP (calculated from IC50=Ki(1+[S]/Km), read-out: K1) was 2000 nM.
